Data reported in US9340590B2 (priority 2011, dated 2016).
Positions of bridges follow the written chain, without caps; N, C: chain ends. Residues, ends and D or L forms follow the SMILES beside them.

What was measured:
Test in all cases: cell-based
hNav1.7 = hNav1.7 (Homo sapiens, UniProt Q15858); format: cell-based; conditions: IonWorks Quattro, use-dependent block, hNav1.7; read-out: IWQ Use Nav1.7
hNav1.3 = hNav1.3 (Homo sapiens, UniProt Q9NY46); conditions: IonWorks Quattro, use-dependent block, hNav1.3; read-out: IWQ Use Nav1.3
hNav1.5 = hNav1.5 (Homo sapiens, UniProt Q14524); conditions: IonWorks Quattro, use-dependent block, hNav1.5; read-out: IWQ Use Nav1.5
Chain of hNav1.5 (Q14524 whole entry, looked up): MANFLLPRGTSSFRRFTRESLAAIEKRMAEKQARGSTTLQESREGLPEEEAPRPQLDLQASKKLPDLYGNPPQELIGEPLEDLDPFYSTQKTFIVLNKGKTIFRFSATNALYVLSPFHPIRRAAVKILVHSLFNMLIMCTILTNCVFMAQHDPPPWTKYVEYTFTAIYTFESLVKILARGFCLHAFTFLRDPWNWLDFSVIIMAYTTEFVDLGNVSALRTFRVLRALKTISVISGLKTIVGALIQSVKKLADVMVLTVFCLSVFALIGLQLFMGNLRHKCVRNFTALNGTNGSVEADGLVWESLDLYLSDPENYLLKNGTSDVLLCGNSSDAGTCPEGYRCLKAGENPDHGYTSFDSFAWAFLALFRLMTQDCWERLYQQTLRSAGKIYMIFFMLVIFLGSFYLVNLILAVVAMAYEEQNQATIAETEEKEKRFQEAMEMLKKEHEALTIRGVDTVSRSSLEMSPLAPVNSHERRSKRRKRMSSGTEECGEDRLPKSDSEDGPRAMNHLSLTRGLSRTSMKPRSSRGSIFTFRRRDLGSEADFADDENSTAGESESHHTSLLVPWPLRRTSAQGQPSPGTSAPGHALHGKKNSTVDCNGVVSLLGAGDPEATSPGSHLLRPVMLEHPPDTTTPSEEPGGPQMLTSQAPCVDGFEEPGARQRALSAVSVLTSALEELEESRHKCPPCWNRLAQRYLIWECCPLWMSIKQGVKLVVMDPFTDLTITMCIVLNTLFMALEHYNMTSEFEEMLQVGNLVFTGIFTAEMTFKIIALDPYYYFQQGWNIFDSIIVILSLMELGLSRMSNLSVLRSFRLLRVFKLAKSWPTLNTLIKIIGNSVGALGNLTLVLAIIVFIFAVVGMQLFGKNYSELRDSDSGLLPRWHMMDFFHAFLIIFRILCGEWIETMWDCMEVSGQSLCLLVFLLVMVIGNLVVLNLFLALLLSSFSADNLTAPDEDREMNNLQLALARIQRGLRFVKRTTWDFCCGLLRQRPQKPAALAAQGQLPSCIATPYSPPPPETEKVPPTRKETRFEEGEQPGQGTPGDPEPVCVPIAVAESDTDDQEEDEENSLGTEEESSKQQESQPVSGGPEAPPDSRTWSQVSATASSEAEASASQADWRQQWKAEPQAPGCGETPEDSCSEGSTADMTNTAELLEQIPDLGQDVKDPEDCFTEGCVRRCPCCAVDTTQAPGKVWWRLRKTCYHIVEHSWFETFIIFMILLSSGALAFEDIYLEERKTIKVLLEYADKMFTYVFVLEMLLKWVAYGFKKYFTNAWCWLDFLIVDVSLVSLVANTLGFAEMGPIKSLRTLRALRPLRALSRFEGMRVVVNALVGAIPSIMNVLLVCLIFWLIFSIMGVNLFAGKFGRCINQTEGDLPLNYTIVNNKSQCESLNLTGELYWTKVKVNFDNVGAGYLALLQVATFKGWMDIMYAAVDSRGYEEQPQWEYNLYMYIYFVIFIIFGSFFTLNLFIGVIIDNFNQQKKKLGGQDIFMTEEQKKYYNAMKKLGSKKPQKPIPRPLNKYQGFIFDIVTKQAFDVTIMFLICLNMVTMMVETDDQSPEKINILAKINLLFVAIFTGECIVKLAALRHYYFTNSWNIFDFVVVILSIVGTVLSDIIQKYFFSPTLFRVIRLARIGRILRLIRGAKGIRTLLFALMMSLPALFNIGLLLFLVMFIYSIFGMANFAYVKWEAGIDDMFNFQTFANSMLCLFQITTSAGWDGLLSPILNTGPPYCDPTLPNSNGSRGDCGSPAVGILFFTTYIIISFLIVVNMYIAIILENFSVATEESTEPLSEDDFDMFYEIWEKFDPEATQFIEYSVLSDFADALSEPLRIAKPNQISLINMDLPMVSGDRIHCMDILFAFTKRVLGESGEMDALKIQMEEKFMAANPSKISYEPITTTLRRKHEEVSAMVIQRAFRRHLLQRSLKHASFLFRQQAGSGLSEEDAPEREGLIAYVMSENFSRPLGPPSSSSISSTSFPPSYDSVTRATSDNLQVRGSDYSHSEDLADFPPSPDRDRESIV

Chain of hNav1.3 (Q9NY46 whole entry, looked up): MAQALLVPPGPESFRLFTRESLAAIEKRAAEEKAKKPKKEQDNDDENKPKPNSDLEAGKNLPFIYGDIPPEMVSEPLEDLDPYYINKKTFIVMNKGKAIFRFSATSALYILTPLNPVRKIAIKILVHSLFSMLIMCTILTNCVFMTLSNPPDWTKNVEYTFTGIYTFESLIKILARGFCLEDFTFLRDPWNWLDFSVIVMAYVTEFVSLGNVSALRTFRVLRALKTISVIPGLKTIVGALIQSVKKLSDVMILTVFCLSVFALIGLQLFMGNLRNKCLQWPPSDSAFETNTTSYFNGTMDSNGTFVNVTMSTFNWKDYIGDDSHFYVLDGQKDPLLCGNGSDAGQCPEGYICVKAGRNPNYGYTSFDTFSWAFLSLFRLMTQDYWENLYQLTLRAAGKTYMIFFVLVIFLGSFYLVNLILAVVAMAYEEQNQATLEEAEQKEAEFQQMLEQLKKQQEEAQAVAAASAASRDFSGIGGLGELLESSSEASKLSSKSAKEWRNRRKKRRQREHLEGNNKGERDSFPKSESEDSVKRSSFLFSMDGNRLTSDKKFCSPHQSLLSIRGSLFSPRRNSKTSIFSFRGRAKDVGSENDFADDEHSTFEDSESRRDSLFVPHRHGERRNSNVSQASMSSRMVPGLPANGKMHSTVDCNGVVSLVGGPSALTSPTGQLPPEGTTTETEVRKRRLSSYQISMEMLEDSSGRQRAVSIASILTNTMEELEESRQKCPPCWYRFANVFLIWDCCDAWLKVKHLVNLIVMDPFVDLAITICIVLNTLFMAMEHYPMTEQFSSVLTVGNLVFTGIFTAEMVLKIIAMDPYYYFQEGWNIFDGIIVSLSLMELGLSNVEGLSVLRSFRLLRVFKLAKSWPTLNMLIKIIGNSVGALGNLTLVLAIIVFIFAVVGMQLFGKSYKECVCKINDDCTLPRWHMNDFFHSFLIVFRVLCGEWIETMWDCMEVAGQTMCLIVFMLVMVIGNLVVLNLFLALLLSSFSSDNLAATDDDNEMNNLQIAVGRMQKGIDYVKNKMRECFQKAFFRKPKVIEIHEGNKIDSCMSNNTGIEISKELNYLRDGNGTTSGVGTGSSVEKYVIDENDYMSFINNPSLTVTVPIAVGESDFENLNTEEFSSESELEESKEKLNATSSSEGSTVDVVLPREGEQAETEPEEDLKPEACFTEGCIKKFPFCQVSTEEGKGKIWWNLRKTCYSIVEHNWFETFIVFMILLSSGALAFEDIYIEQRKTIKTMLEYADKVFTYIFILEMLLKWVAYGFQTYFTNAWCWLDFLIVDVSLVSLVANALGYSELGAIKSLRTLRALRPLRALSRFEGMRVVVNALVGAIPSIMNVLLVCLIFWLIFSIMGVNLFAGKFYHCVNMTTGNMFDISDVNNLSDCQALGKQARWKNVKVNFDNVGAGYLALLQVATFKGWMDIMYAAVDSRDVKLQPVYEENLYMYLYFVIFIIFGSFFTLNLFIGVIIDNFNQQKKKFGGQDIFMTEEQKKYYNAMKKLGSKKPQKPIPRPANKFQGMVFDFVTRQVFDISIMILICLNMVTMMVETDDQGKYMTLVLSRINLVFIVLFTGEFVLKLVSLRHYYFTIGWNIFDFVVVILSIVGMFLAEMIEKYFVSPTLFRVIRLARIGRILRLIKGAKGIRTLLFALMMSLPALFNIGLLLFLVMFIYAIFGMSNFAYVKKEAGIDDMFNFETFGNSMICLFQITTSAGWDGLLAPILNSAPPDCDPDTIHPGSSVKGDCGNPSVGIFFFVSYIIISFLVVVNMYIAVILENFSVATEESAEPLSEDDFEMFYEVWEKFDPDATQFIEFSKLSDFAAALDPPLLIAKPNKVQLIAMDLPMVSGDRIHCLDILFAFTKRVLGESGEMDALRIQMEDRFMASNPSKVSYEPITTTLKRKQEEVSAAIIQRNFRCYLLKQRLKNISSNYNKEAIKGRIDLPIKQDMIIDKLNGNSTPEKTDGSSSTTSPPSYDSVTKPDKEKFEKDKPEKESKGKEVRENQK

Which IC50 (hNav1.7) does the source give for `CC[C@H](C)[C@@H]1NC(=O)[C@@H]2CSSC[C@@H]3NC(=O)[C@H](C(C)C)NC(=O)[C@H](CC(C)C)NC(=O)[C@H](CC(N)=O)NC(=O)[C@@H]4CCCN4C(=O)[C@H](CCCNC(=N)N)NC(=O)[C@H](CSSC[C@H](NC(=O)[C@@H](N)CC(=O)O)C(=O)N[C@@H](CC(C)C)C(=O)NCC(=O)N[C@@H](C)C(=O)N[C@@H](Cc4ccccc4)C(=O)N[C@@H](CCCNC(=N)N)C(=O)N[C@@H](CCCCN)C(=O)N2)NC(=O)[C@H](CSSC[C@@H](C(=O)N[C@@H](CCCCN)C(=O)N[C@@H](Cc2ccc(O)cc2)C(=O)N[C@H](C(=O)N[C@@H](Cc2ccccc2)C(=O)O)C(C)C)NC(=O)[C@H](Cc2c[nH]c4ccccc24)NC(=O)[C@H](CCCNC(=N)N)NC(=O)[C@H](Cc2c[nH]cn2)NC(=O)[C@H]([C@@H](C)O)NC(=O)[C@H](CCCNC(=N)N)NC(=O)[C@H](CO)NC3=O)NC(=O)[C@H](CCCCN)NC(=O)[C@H](CC(=O)O)NC(=O)[C@H](CO)NC(=O)[C@H](CC(=O)O)NC(=O)[C@@H]2CCCN2C1=O` [compound 849] here?
The IC50 was > 5 µM.

And the IC50 (hNav1.3)?
The IC50 was 1.1 µM.

And the IC50 (hNav1.5)?
Its IC50 is > 5 µM.

`CC[C@H](C)[C@@H]1NC(=O)[C@@H]2CSSC[C@@H]3NC(=O)[C@H](C(C)C)NC(=O)[C@H](CC(C)C)NC(=O)[C@H](CC(N)=O)NC(=O)[C@@H]4CCCN4C(=O)[C@H](CCCNC(=N)N)NC(=O)[C@H](CSSC[C@H](NC(=O)[C@@H](N)CC(=O)O)C(=O)N[C@@H](CC(C)C)C(=O)NCC(=O)N[C@@H](C)C(=O)N[C@@H](Cc4ccccc4)C(=O)N[C@@H](CCCNC(=N)N)C(=O)N[C@@H](CCCCN)C(=O)N2)NC(=O)[C@H](CSSC[C@@H](C(=O)N[C@@H](CCCCN)C(=O)N[C@@H](Cc2ccc(O)cc2)C(=O)N[C@H](C(=O)N[C@@H](Cc2ccccc2)C(=O)O)C(C)C)NC(=O)[C@H](Cc2c[nH]c4ccccc24)NC(=O)[C@H](CCCNC(=N)N)NC(=O)[C@H](Cc2c[nH]cn2)NC(=O)[C@H]([C@@H](C)O)NC(=O)[C@H](CCCNC(=N)N)NC(=O)[C@H](CO)NC3=O)NC(=O)[C@H](CCCCN)NC(=O)[C@H](CC(=O)O)NC(=O)[C@H]([C@@H](C)O)NC(=O)[C@H](CC(=O)O)NC(=O)[C@@H]2CCCN2C1=O` [compound 850] was tested. Which IC50 (hNav1.7) did it give?
Its IC50 is > 5 µM.

And the IC50 (hNav1.3)?
Its IC50 is 1.3 µM.

And the IC50 (hNav1.5)?
Its IC50 is > 5 µM.

What does the source list for `CC[C@H](C)[C@@H]1NC(=O)[C@@H]2CSSC[C@@H]3NC(=O)[C@H](C(C)C)NC(=O)[C@H](CC(C)C)NC(=O)[C@H](CC(N)=O)NC(=O)[C@@H]4CCCN4C(=O)[C@H](CCCNC(=N)N)NC(=O)[C@H](CSSC[C@H](NC(=O)[C@@H](N)CC(=O)O)C(=O)N[C@@H](CC(C)C)C(=O)NCC(=O)N[C@@H](C)C(=O)N[C@@H](Cc4ccccc4)C(=O)N[C@@H](CCCNC(=N)N)C(=O)N[C@@H](CCCCN)C(=O)N2)NC(=O)[C@H](CSSC[C@@H](C(=O)N[C@@H](CCCCN)C(=O)N[C@@H](Cc2ccc(O)cc2)C(=O)N[C@H](C(=O)N[C@@H](Cc2ccccc2)C(=O)O)C(C)C)NC(=O)[C@H](Cc2c[nH]c4ccccc24)NC(=O)[C@H](CCCNC(=N)N)NC(=O)[C@H](Cc2c[nH]cn2)NC(=O)[C@H]([C@@H](C)O)NC(=O)[C@H](CCCNC(=N)N)NC(=O)[C@H](CO)NC3=O)NC(=O)[C@H](CCCCN)NC(=O)[C@H](CC(=O)O)NC(=O)[C@H](C(C)C)NC(=O)[C@H](CC(=O)O)NC(=O)[C@@H]2CCCN2C1=O` [compound 851]?
IC50 (hNav1.7): > 5 µM; IC50 (hNav1.3): 1.7 µM; IC50 (hNav1.5): > 5 µM

With `CC[C@H](C)[C@@H]1NC(=O)[C@@H]2CSSC[C@@H]3NC(=O)[C@H](C(C)C)NC(=O)[C@H](CC(C)C)NC(=O)[C@H](CC(N)=O)NC(=O)[C@@H]4CCCN4C(=O)[C@H](CCCNC(=N)N)NC(=O)[C@H](CSSC[C@H](NC(=O)[C@@H](N)CC(=O)O)C(=O)N[C@@H](CC(C)C)C(=O)NCC(=O)N[C@@H](C)C(=O)N[C@@H](Cc4ccccc4)C(=O)N[C@@H](CCCNC(=N)N)C(=O)N[C@@H](CCCCN)C(=O)N2)NC(=O)[C@H](CSSC[C@@H](C(=O)N[C@@H](CCCCN)C(=O)N[C@@H](Cc2ccc(O)cc2)C(=O)N[C@H](C(=O)N[C@@H](Cc2ccccc2)C(=O)O)C(C)C)NC(=O)[C@H](Cc2c[nH]c4ccccc24)NC(=O)[C@H](CCCNC(=N)N)NC(=O)[C@H](Cc2c[nH]cn2)NC(=O)[C@H]([C@@H](C)O)NC(=O)[C@H](CCCNC(=N)N)NC(=O)[C@H](CO)NC3=O)NC(=O)[C@H](CCCCN)NC(=O)[C@H](CC(=O)O)NC(=O)[C@H](Cc2c[nH]c3ccccc23)NC(=O)[C@H](CC(=O)O)NC(=O)[C@@H]2CCCN2C1=O` [compound 852] as the molecule, how does the IC50 (hNav1.7) read?
Its IC50 is > 5 µM.

And the IC50 (hNav1.3)?
The IC50 was > 5 µM.

What about the IC50 (hNav1.5) of the same molecule?
Its IC50 is > 5 µM.

With `CC[C@H](C)[C@@H]1NC(=O)[C@@H]2CSSC[C@@H]3NC(=O)[C@H](C(C)C)NC(=O)[C@H](CC(C)C)NC(=O)[C@H](CC(N)=O)NC(=O)[C@@H]4CCCN4C(=O)[C@H](CCCNC(=N)N)NC(=O)[C@H](CSSC[C@H](NC(=O)[C@@H](N)CC(=O)O)C(=O)N[C@@H](CC(C)C)C(=O)NCC(=O)N[C@@H](C)C(=O)N[C@@H](CC(C)C)C(=O)N[C@@H](CCCNC(=N)N)C(=O)N[C@@H](CCCCN)C(=O)N2)NC(=O)[C@H](CSSC[C@@H](C(=O)N[C@@H](CCCCN)C(=O)N[C@@H](Cc2ccc(O)cc2)C(=O)N[C@H](C(=O)N[C@@H](Cc2ccccc2)C(=O)O)C(C)C)NC(=O)[C@H](Cc2c[nH]c4ccccc24)NC(=O)[C@H](CCCNC(=N)N)NC(=O)[C@H](Cc2c[nH]cn2)NC(=O)[C@H]([C@@H](C)O)NC(=O)[C@H](CCCNC(=N)N)NC(=O)[C@H](CO)NC3=O)NC(=O)[C@H](CCCCN)NC(=O)[C@H](CC(=O)O)NC(=O)[C@H](CC(N)=O)NC(=O)[C@H](CC(=O)O)NC(=O)[C@@H]2CCCN2C1=O` [compound 853] (H-DCLGALRKCIPDNDKCCRPNLVCSRTHRWCKYVF-OH; disulfide 2-17, 9-23, 16-30) as the molecule, how does the IC50 (hNav1.7) read?
Its IC50 is > 5 µM.

What about the IC50 (hNav1.3) of the same molecule?
The IC50 was > 5 µM.

And the IC50 (hNav1.5)?
The IC50 was > 5 µM.

Which IC50 (hNav1.7) does the source give for `CC[C@H](C)[C@@H]1NC(=O)[C@@H]2CSSC[C@@H]3NC(=O)[C@H](C(C)C)NC(=O)[C@H](CC(C)C)NC(=O)[C@H](CC(N)=O)NC(=O)[C@@H]4CCCN4C(=O)[C@H](CCCNC(=N)N)NC(=O)[C@H](CSSC[C@H](NC(=O)[C@@H](N)CC(=O)O)C(=O)N[C@@H](CC(C)C)C(=O)NCC(=O)N[C@@H](C)C(=O)N[C@@H](CC(C)C)C(=O)N[C@@H](CCCNC(=N)N)C(=O)N[C@@H](CCCCN)C(=O)N2)NC(=O)[C@H](CSSC[C@@H](C(=O)N[C@@H](CCCCN)C(=O)N[C@@H](Cc2ccc(O)cc2)C(=O)N[C@H](C(=O)N[C@@H](Cc2ccccc2)C(=O)O)C(C)C)NC(=O)[C@H](Cc2c[nH]c4ccccc24)NC(=O)[C@H](CC(=O)O)NC(=O)[C@H](Cc2c[nH]cn2)NC(=O)[C@H]([C@@H](C)O)NC(=O)[C@H](CCCNC(=N)N)NC(=O)[C@H](CO)NC3=O)NC(=O)[C@H](CCCCN)NC(=O)[C@H](CC(=O)O)NC(=O)[C@H](CC(N)=O)NC(=O)[C@H](CC(=O)O)NC(=O)[C@@H]2CCCN2C1=O` [compound 854] (H-DCLGALRKCIPDNDKCCRPNLVCSRTHDWCKYVF-OH; disulfide 2-17, 9-23, 16-30) here?
Its IC50 is > 5 µM.

And the IC50 (hNav1.3)?
The IC50 was > 5 µM.

And the IC50 (hNav1.5)?
Its IC50 is > 5 µM.
